This is an account of results in patent publication EP2323645B1, “USE OF LOW-DOSE LOCAL ANAESTHETIC OR DERIVATIVES THEREOF FOR THERAPY OF CHRONIC PAIN, ESPECIALLY MIGRAINE” (priority 2008, dated 2010).

The structures appear in SMILES notation.

The subject of the assay is therapieresistenter chronischer Sensibilitätsstörungen an Armen und Händen mit Verlust der rohen Kraft. The assay is described as follows: Treatment of therapy-resistant chronic sensory disturbances of arms and hands with loss of strength. It counts as in vivo, Patienten.

Regarding `CCN(CC)CC(=O)Nc1c(C)cccc1C` [Lidocain], the “Remission der Kraftlosigkeit” value (2 to 4 deep paravertebral injections, middle or lower cervical spine, 0,1 Gew.-%) is on record as “Spontane Remission”. Besides, the “Remission der Sensibilitätsstörungen” value (after further identical treatment sessions) is “vollständig nach zwei bis vier weiteren identisch reproduzierten Behandlungssitzungen”.
